Measured values taken from article PMC4069099, “Pharmacological Validation of an Inward-Rectifier Potassium (Kir) Channel as an Insecticide Target in the Yellow Fever Mosquito Aedes aegypti” (PLoS ONE, 2014).

Experiments:
Assay type in all cases: cell-based
AeKir1 [1] = target: T1, AeKir1 (Aedes aegypti, UniProt L0EQS9); experiment: two-electrode voltage clamp in Xenopus oocytes, inhibition of inward current at […]
T1 sequence (L0EQS9 1-486): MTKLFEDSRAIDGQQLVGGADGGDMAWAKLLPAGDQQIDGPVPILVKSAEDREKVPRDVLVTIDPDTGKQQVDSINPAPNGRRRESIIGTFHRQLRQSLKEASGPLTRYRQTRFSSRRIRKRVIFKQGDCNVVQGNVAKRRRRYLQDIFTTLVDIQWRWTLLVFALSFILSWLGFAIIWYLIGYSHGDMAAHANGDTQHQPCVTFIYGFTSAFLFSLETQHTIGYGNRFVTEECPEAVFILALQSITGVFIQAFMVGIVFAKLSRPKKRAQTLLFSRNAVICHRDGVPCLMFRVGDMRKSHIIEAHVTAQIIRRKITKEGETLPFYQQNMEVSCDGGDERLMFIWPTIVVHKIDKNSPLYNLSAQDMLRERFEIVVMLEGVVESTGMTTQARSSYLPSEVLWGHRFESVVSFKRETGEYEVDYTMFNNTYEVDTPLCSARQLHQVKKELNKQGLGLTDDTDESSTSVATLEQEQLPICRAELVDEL

AeKir2B = target: T2, AeKir2B (Aedes aegypti, UniProt L0EQ40); experiment: two-electrode voltage clamp in Xenopus oocytes, activation of inward current at […]
T2 sequence (L0EQ40 1-489): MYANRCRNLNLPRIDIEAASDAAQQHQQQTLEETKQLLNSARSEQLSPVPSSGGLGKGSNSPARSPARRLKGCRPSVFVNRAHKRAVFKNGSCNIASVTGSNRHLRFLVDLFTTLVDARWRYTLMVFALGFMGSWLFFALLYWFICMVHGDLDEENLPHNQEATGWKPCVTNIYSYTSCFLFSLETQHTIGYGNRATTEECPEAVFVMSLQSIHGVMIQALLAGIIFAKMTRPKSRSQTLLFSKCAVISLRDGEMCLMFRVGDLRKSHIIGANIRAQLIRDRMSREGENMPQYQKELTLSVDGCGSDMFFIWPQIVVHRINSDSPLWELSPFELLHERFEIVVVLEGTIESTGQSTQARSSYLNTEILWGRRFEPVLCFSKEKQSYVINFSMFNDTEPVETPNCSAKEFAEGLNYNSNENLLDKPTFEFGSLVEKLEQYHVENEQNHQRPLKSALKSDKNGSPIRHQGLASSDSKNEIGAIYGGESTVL

AeKir1 [2] = target: T1, AeKir1; experiment: Tl+-flux assay in T-REx-HEK293 cells expressing AeKir1; also two-electrode voltage clamp in Xenopus oocytes ([…], […] block)

| SMILES | % inhibition at 50 μM (AeKir1 [1]) | % activation at 50 μM (AeKir2B) [% activation at 50 µM] | IC50 (AeKir1 [2]) [µM] |
| --- | --- | --- | --- |
| Cc1ccc(OCC(O)Cn2c(=N)n(Cc3ccccc3)c3ccccc32)cc1 (stereo not drawn) [VU573] | ~ 50 | > 50 |  |
| O=[N+]([O-])c1ccc(CN2CCOCCOCCN(Cc3ccc([N+](=O)[O-])cc3)CCOCC2)cc1 [VU590] |  |  | 5.6 |
